Source: patent US12414961B2, “Substituted nucleosides and nucleotides for treating viral infections” (priority 2013, dated 2025)

How the values were obtained:
A204 = experiment: Cytotoxicity (CC50) A204; type: cell-based; settings: A204
IEC-6 = experiment: Cytotoxicity (CC50) IEC-6; type: cell-based; settings: IEC-6
BxPC3 = experiment: Cytotoxicity (CC50) BxPC3; settings: read-out: Cytotoxicity (CC50 uM) BxPC3; BxPC3
Influenza A H1N1 = Influenza A H1N1 antiviral assay; type: cell-based; settings: Influenza A virus, H1N1, read-out: Influenza A H1N1 EC50
Influenza A H3N2 = Influenza A H3N2 antiviral assay; type: cell-based; settings: Influenza A virus, H3N2, read-out: Influenza A H3N2 EC50
[1] = tested on: Influenza A H5N1 (low path); experiment: microbe, parasite or virus in culture; type: cell-based; settings: H5N1, read-out: Influenza A H5N1 (low path) EC50
Influenza B = Influenza B antiviral assay; type: cell-based; settings: Influenza B virus
RSV = RSV antiviral assay; type: cell-based; settings: human respiratory syncytial virus
SARS = experiment: microbe, parasite or virus in culture; type: cell-based; settings: Severe acute respiratory syndrome coronavirus, read-out: SARS EC50
Measles = Measles antiviral assay; type: cell-based, Measles virus; settings: Measles morbillivirus
CHIK Virus = CHIK Virus screening assay; type: cell-based, CHIKV; settings: Chikungunya virus, read-out: CHIK Virus EC50
Dengue Virus = Dengue Virus screening assay; type: cell-based, DENV
RVFV = experiment: microbe, parasite or virus in culture; type: cell-based; settings: Rift Valley fever virus, read-out: RVFV EC50
Tacaribe Virus = experiment: microbe, parasite or virus in culture; type: cell-based, TCRV; settings: Mammarenavirus tacaribeense, read-out: Tacaribe Virus EC50
VEEV = experiment: microbe, parasite or virus in culture; type: cell-based; settings: Venezuelan equine encephalitis virus, read-out: VEEV EC50
West Nile Virus = West Nile Virus screening assay; type: cell-based, WNV; settings: read-out: West Nile Virus EC50
Huh-7 = experiment: Cytotoxicity (CC50) Huh-7; settings: read-out: Cytotoxicity (CC50 uM) Huh-7; Huh-7
HepG2 = experiment: Cytotoxicity (CC50) HepG2; settings: read-out: Cytotoxicity (CC50 uM) HepG2; HepG2
H9c = experiment: Cytotoxicity (CC50) H9c; type: cell-based; settings: H9c
CEM = experiment: Cytotoxicity (CC50) CEM; settings: read-out: Cytotoxicity (CC50 uM) CEM; CEM
Cytotoxicity (CC50) CEM = settings: human, CEM cells
[2] = Cytotoxicity (CC50) Huh-7; settings: human, Huh-7 cells
[3] = Cytotoxicity (CC50) HepG2; settings: human, HepG2 cells
[4] = Cytotoxicity in Huh-7 cells (Dengue assay); settings: human, Huh-7 cells
Dengue Type 2 [5] = experiment: Anti-Dengue virus cytoprotection assay, Huh-7 cells; settings: Huh-7, read-out: Dengue Type 2 Huh-7 Cells (EC50 uM)
GT1b replicon cells = experiment: Cytotoxicity in GT1b replicon cells; type: cell-based
Huh-7 cells = experiment: Cytotoxicity in Huh-7 cells of the HCV replicon assay; settings: read-out: Huh-7 cells (CC50 uM)
[6] = Cytotoxicity in Vero cells (Dengue assay); settings: African green monkey
Dengue Type 2 [7] = experiment: Anti-Dengue virus cytoprotection assay, Vero cells; settings: read-out: Dengue Type 2 Vero Cells (EC50 uM)

Question: For CC(C)OC(=O)[C@H](C)NP(=O)(OC[C@H]1O[C@@H](n2ccc(=O)[nH]c2=S)[C@](C)(O)C1O)Oc1ccccc1 (stereo partly shown) [drawing 369], which CC50 (A204) is on record?
Answer: 98 µM

Question: What about the CC50 (IEC-6) of the same compound?
Answer: > 200 µM

Question: And the CC50 (BxPC3)?
Answer: > 300 µM

Question: Which EC50 (Influenza A H1N1) does the source give for CN(C)c1ccn([C@@H]2O[C@H](CO)[C@H](O)C2F)c(=O)n1 (stereo partly shown) [EFVX-01854] here?
Answer: > 100 µM

Question: What about the EC50 (Influenza A H3N2) of the same compound?
Answer: > 100 µM

Question: And the EC50 [1]?
Answer: > 100 µM

Question: And the EC50 (Influenza B)?
Answer: > 100 µM

Question: What about the EC50 (RSV) of the same compound?
Answer: > 100 µM

Question: And the EC50 (SARS)?
Answer: > 100 µM

Question: What about the EC50 (Measles) of the same compound?
Answer: > 100 µM

Question: What about the EC50 (CHIK Virus) of the same compound?
Answer: > 100 µg/mL

Question: What about the EC50 (Dengue Virus) of the same compound?
Answer: > 100 µg/mL

Question: And the EC50 (RVFV)?
Answer: > 100 µg/mL

Question: And the EC50 (Tacaribe Virus)?
Answer: > 100 µg/mL

Question: What about the EC50 (VEEV) of the same compound?
Answer: > 100 µg/mL

Question: And the EC50 (West Nile Virus)?
Answer: > 100 µg/mL

Question: Which results are given for CC(C)OC(=O)[C@H](C)NP(=O)(OC[C@H]1O[C@@H](n2ccc(=O)[nH]c2=[Se])[C@](C)(O)C1O)Oc1ccccc1 (stereo partly shown)?
Answer: CC50 (A204): > 400 µM; CC50 (Huh-7): > 100 µM; CC50 (HepG2): > 400 µM; CC50 (BxPC3): > 400 µM

Question: With CC(C)OC(=O)[C@H](C)NP(=O)(OC[C@H]1O[C@@H](n2ccc(=O)[nH]c2=S)[C@](C)(O)C1O)Oc1ccccc1 (stereo partly shown) [drawing 366] as the compound, how does the CC50 (A204) read?
Answer: 98 µM

Question: What about the CC50 (IEC-6) of the same compound?
Answer: > 200 µM

Question: And the CC50 (H9c)?
Answer: > 200 µM

Question: And the CC50 (CEM)?
Answer: > 300 µM

Question: What about the CC50 (Huh-7) of the same compound?
Answer: > 400 µM

Question: And the CC50 (HepG2)?
Answer: > 400 µM

Question: And the CC50 (BxPC3)?
Answer: > 300 µM

Question: For CC(C)OC(=O)[C@H](C)NP(=O)(OC[C@H]1O[C@@H](n2ccc(=O)[nH]c2=S)C(C)[C@H]1O)Oc1ccccc1 (stereo partly shown), which CC50 (Cytotoxicity (CC50) CEM) is on record?
Answer: 259 µM

Question: And the CC50 [2]?
Answer: > 400 µM

Question: And the CC50 [3]?
Answer: > 400 µM

Question: And the CC50 [4]?
Answer: > 100 µM

Question: What about the EC50 (Dengue Type 2 [5]) of the same compound?
Answer: 6.07 µM

Question: With CC(C)OC(=O)[C@H](C)NP(=O)(OC[C@H]1O[C@@H](n2ccc(=O)[nH]c2=S)[C@](C)(O)C1O)Oc1ccccc1 (stereo partly shown) [drawing 383] as the compound, how does the CC50 (GT1b replicon cells) read?
Answer: > 10 µM

Question: For CC(C)OC(=O)[C@H](C)N[P@](=O)(OC[C@H]1O[C@@H](n2ccc(=O)[nH]c2=S)[C@](C)(O)C1O)Oc1ccccc1 (stereo partly shown) [drawing 371], which CC50 (CEM) is on record?
Answer: > 400 µM

Question: What about the CC50 (Huh-7) of the same compound?
Answer: 252 µM

Question: What about the CC50 (HepG2) of the same compound?
Answer: > 400 µM

Question: Which CC50 (CEM) does the source give for CC(C)OC(=O)[C@H](C)NP(=O)(OC[C@@]1(N=[N+]=[N-])O[C@@H](n2ccc(=S)[nH]c2=O)[C@@H](O)C1O)Oc1ccccc1 (stereo partly shown) here?
Answer: 229 µM

Question: And the CC50 (Huh-7)?
Answer: > 400 µM

Question: What about the CC50 (HepG2) of the same compound?
Answer: > 400 µM

Question: And the CC50 (Huh-7 cells)?
Answer: > 100 µM

Question: What does the source list for CC(C)OC(=O)[C@H](C)N[P@@](=O)(OC[C@H]1O[C@@H](n2ccc(=O)[nH]c2=S)C(C)(O)[C@H]1O)Oc1ccccc1 (stereo partly shown)?
Answer: CC50 (Cytotoxicity (CC50) CEM): > 400 µM; CC50 [2]: > 400 µM; CC50 [3]: > 400 µM; CC50 [6]: > 100 µM; CC50 [4]: > 100 µM; EC50 (Dengue Type 2 [7]): 56.2 µM; EC50 (Dengue Type 2 [5]): 24.9 µM

Question: Which CC50 (Cytotoxicity (CC50) CEM) does the source give for CC(C)OC(=O)[C@H](C)NP(=O)(OC[C@@]1(N=[N+]=[N-])O[C@@H](n2ccc(=S)[nH]c2=O)C(O)[C@H]1O)Oc1ccccc1 (stereo partly shown) here?
Answer: 229 µM

Question: And the CC50 [2]?
Answer: > 400 µM

Question: What about the CC50 [3] of the same compound?
Answer: > 400 µM

Question: And the CC50 [4]?
Answer: > 100 µM

Question: And the EC50 (Dengue Type 2 [5])?
Answer: 4.82 µM

Question: With CC(C)OC(=O)[C@H](C)N[P@](=O)(OC[C@H]1O[C@@H](n2ccc(=O)[nH]c2=O)[C@](C)(F)C1O)Oc1ccccc1 (stereo partly shown) [drawing 385] as the compound, how does the CC50 (GT1b replicon cells) read?
Answer: > 2 µM

Question: For Nc1nc(=O)n([C@@H]2O[C@H](CO)[C@H](O)C2F)cc1CO (stereo partly shown) [EFVX-01856], which EC50 (Influenza A H1N1) is on record?
Answer: > 100 µM

Question: And the EC50 (Influenza A H3N2)?
Answer: > 100 µM

Question: What about the EC50 [1] of the same compound?
Answer: > 100 µM

Question: What about the EC50 (Influenza B) of the same compound?
Answer: > 100 µM

Question: What about the EC50 (RSV) of the same compound?
Answer: > 100 µM

Question: What about the EC50 (SARS) of the same compound?
Answer: > 100 µM

Question: What about the EC50 (Measles) of the same compound?
Answer: > 100 µM

Question: And the EC50 (CHIK Virus)?
Answer: > 100 µg/mL

Question: What about the EC50 (Dengue Virus) of the same compound?
Answer: > 100 µg/mL

Question: What about the EC50 (RVFV) of the same compound?
Answer: > 100 µg/mL

Question: What about the EC50 (Tacaribe Virus) of the same compound?
Answer: > 100 µg/mL

Question: And the EC50 (VEEV)?
Answer: > 100 µg/mL

Question: And the EC50 (West Nile Virus)?
Answer: > 100 µg/mL

Question: For CC(C)OC(=O)[C@H](C)N[P@@](=O)(OC[C@H]1O[C@@H](n2ccc(=O)[nH]c2=O)[C@](C)(F)C1O)Oc1ccccc1 (stereo partly shown), which CC50 (CEM) is on record?
Answer: > 400 µM

Question: And the CC50 (Huh-7)?
Answer: > 400 µM

Question: And the CC50 (HepG2)?
Answer: > 400 µM

Question: Which results are given for Cc1cn([C@@H]2O[C@H](CO)[C@H](O)C2F)c(=O)nc1N (stereo partly shown) [EFVX-01855]?
Answer: EC50 (Influenza A H1N1): > 100 µM; EC50 (Influenza A H3N2): > 100 µM; EC50 [1]: > 100 µM; EC50 (Influenza B): > 100 µM; EC50 (RSV): > 100 µM; EC50 (SARS): > 100 µM; EC50 (Measles): > 100 µM; EC50 (CHIK Virus): > 100 µg/mL; EC50 (Dengue Virus): > 100 µg/mL; EC50 (RVFV): > 100 µg/mL; EC50 (Tacaribe Virus): > 100 µg/mL; EC50 (VEEV): > 100 µg/mL; EC50 (West Nile Virus): > 100 µg/mL
